In patent US20080255085A1, “Novel Imidazo [4,5-b] Pyridine Derivatives as Inhibitors of Glycogen Synthase Kinase 3 for Use in the Treatment of Dementia and Neurodegenerative Disorders” (ASTRAZENECA AB, priority 2005, published 2008) one finds Ki data, which are given here for four compounds.

In general, Ki refers to the equilibrium dissociation constant of an inhibitor or competing ligand from its target.

Structures are written as SMILES. Counter-ions that a name gives are not always drawn.

The target in this experiment is T1, GSK3β (Homo sapiens, UniProt P49841).
T1 construct: purchased Dundee University, UK
T1 sequence (P49841 whole entry): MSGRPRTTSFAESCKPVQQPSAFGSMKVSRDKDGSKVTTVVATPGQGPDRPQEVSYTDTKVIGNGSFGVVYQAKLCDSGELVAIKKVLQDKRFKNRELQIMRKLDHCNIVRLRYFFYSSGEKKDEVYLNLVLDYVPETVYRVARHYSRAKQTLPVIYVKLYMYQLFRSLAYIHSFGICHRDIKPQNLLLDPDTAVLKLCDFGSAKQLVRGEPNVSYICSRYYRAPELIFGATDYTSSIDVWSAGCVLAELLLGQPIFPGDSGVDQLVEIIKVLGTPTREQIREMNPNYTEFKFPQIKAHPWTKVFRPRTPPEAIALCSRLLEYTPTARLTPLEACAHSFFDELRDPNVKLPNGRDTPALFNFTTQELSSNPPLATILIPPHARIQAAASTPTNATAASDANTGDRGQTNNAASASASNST
Kind of experiment: GSK3β Scintillation Proximity Assay (ATP competition). Conditions: recombinant human GSK3; 1 μM ATP; Km of ATP 20 μM used to calculate Ki; 20 minutes at room temperature. The experiment is classed as biochemical. As to the method:
Determination of ATP Competition in Scintillation Proximity GSK3β Assay.
GSK3β Scintillation Proximity Assay.
The competition experiments were carried out in duplicate with 10 different concentrations of the inhibitors in clear-bottom microtiter plates (Wallac, Finland). A biotinylated peptide substrate, Biotin-Ala-Ala-Glu-Glu-Leu-Asp-Ser-Arg-Ala-Gly-Ser(PO3H2)-Pro-Gln-Leu (AstraZeneca, Lund), was added at a final concentration of 1 μM in an assay buffer containing 1 mU recombinant human GSK3 (Dundee University, UK), 12 mM morpholinepropanesulfonic acid (MOPS), pH 7.0, 0.3 mM EDTA, 0.01% β-mercaptorethanol, 0.004% Brij 35 (a […] detergent), 0.5% glycerol and 0.5 μg BSA/25 μl. The reaction was initiated by the addition of 0.04 μCi [γ-^33P]ATP (Amersham, UK) and unlabelled ATP at a final concentration of 1 μM and assay volume of 25 μl. After incubation for 20 minutes at room temperature, each reaction was terminated by the addition of 25 μl stop solution containing 5 mM EDTA, […] ATP, 0.1% Triton X-100 and 0.25 mg streptavidin coated Scintillation Proximity Assay (SPA) beads (Amersham, UK). After 6 hours the radioactivity was determined in a liquid scintillation counter (1450 MicroBeta Trilux, Wallac). The inhibition curves were analysed by non-linear regression using GraphPad Prism, USA. The Km value of ATP for GSK3β, used to calculate the inhibition constants (Ki) of the various compounds, was 20 μM.
On to `CN1CCN(C(=O)c2ccc(-c3nc4c(-c5cccnc5)ccnc4[nH]3)cc2)CC1` [Example 9, 2-{4-[(4-Methylpiperazin-1-yl)carbonyl]phenyl}-7-pyridin-3-yl-3H-imidazo[4,5-b]pyridine hydrochloride], for which the Ki was 254 nM. To `COc1ccc(-c2ccnc3[nH]c(-c4ccc(C(=O)NCCN5CCOCC5)cc4)nc23)cc1` [Example 7, 4-[7-(4-Methoxyphenyl)-3H-imidazo[4,5-b]pyridin-2-yl]-N-(2-morpholin-4-ylethyl)benzamide hydrochloride] belongs 44 nM. For `COc1cccc(-c2ccnc3[nH]c(-c4ccc(S(=O)(=O)N5CCN(C)CC5)cc4)nc23)c1` [Example 2, 7-(3-Methoxyphenyl)-2-{4-[(4-methylpiperazin-1-yl)sulfonyl]phenyl}-3H-imidazo[4,5-b]pyridine hydrochloride] the value was 124 nM; for `COc1ccc(-c2ccnc3[nH]c(-c4ccc(CN5CCCCC5)cc4)nc23)cc1` [Example 6, 7-(4-Methoxyphenyl)-2-[4-(piperidin-1-ylmethyl)phenyl]-3H-imidazo[4,5-b]pyridine hydrochloride], 31 nM.
